Tests used:
Assay in all cases: relative viability (nuclei count vs DMSO), 5 days (fraction); higher = more cells survive
[1] = compound: C1CC(C1)(C(=O)O)C(=O)O.[NH2-].[NH2-].[Pt+2] [Carboplatin] + Cc1cc(Nc2cc(N3CCN(C)CC3)nc(Sc3ccc(NC(=O)C4CC4)cc3)n2)n[nH]1 [Tozasertib] (partner 0.1 µM)
Method in brief: (§1)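 Relative viability divides the nuclei count in treated wells by that in vehicle wells. Lung cancer cell lines were seeded in 1536-well plates, dosed by pin tool the next day, and fixed and stained after 5 days in one step with final 0.05% Triton X-100, 1% formaldehyde and 1 ug/ml Hoechst. Dosing was a single drug or a fixed anchor-drug dose plus five library-drug doses (not always all listed) in √10 steps, and values are medians of duplicate plates imaged at 4×.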

[2] = compound: CC[C@H](C)N1C=C(C2=C(C=C(C=C21)C3=CN=C(C=C3)N4CCNCC4)C(=O)NCC5=C(C=C(NC5=O)C)C)C [GSK126] + CC(=O)Nc1cccc(-n2c(=O)n(C3CC3)c(=O)c3c(Nc4ccc(I)cc4F)n(C)c(=O)c(C)c32)c1 [Trametinib] (partner 0.02 µM)
Method in brief: as §1

[3] = compound: CC[C@H](C)N1C=C(C2=C(C=C(C=C21)C3=CN=C(C=C3)N4CCNCC4)C(=O)NCC5=C(C=C(NC5=O)C)C)C [GSK126] + Nc1nc2[nH]cc(CCc3ccc(C(=O)N[C@@H](CCC(=O)O)C(=O)O)cc3)c2c(=O)[nH]1 [Pemetrexed] (partner 0.2 µM)
Method in brief: as §1

[4] = compound: NS(=O)(=O)OC[C@@H]1C[C@@H](n2ccc3c(N[C@H]4CCc5ccccc54)ncnc32)C[C@@H]1O [MLN4924] + Cc1nc(Nc2ncc(C(=O)Nc3c(C)cccc3Cl)s2)cc(N2CCN(CCO)CC2)n1 [Dasatinib] (partner 0.075 µM)
Method in brief: as §1

Cell Line | relative viability ([1]; first compound 0.08 µM) | relative viability ([1]; first compound 0.253 µM) | relative viability ([1]; first compound 2.53 µM) | relative viability ([1]; first compound 8 µM) | relative viability ([2]; first compound 0.08 µM) | relative viability ([2]; first compound 0.253 µM) | relative viability ([2]; first compound 0.8 µM) | relative viability ([2]; first compound 2.53 µM) | relative viability ([2]; first compound 8 µM) | relative viability ([3]; first compound 0.08 µM) | relative viability ([3]; first compound 0.253 µM) | relative viability ([3]; first compound 0.8 µM) | relative viability ([3]; first compound 2.53 µM) | relative viability ([3]; first compound 8 µM) | relative viability ([4]; first compound 0.04 µM) | relative viability ([4]; first compound 0.1265 µM) | relative viability ([4]; first compound 0.4 µM) | relative viability ([4]; first compound 1.265 µM) | relative viability ([4]; first compound 4 µM) | relative viability ([1]; first compound 0.8 µM)
EKVX | 0.439 | 0.371 | 0.381 | 0.38 | 0.377 | 0.446 | 0.354 | 0.362 | 0.268 | 0.403 | 0.373 | 0.413 | 0.374 | 0.31 | 0.588 | 0.261 | 0.471 | 0.193 | 0.238 | 
EMC-BAC-2 | 0.313 | 0.292 | 0.266 | 0.326 | 0.849 | 0.832 | 0.92 | 0.676 | 0.859 | 0.421 | 0.46 | 0.46 | 0.419 | 0.376 | 0.584 | 0.572 | 0.32 | 0.191 | 0.159 | 0.275
EPLC-272H | 0.314 | 0.387 | 0.289 | 0.291 | 0.353 | 0.252 | 0.279 | 0.312 | 0.258 | 0.327 | 0.327 | 0.26 | 0.366 | 0.322 | 0.499 | 0.448 | 0.071 | 0.108 | 0.11 | 0.181
H3255 | 0.829 | 0.603 | 0.52 | 0.525 | 0.685 | 0.628 | 0.639 | 0.546 | 0.571 | 0.596 | 0.548 | 0.568 | 0.898 | 0.58 | 0.314 | 0.349 | 0.296 | 0.256 | 0.235 | 0.577
HARA | 0.146 | 0.122 | 0.11 | 0.11 | 0.755 | 0.771 | 0.587 | 0.613 | 0.621 | 0.247 | 0.258 | 0.231 | 0.215 | 0.215 | 0.362 | 0.358 | 0.311 | 0.0814 | 0.0506 | 0.09
HCC-15 | 0.48 | 0.553 | 0.342 | 0.303 | 0.425 | 0.409 | 0.386 | 0.382 | 0.359 | 0.221 | 0.229 | 0.224 | 0.215 | 0.238 | 0.498 | 0.183 | 0.132 | 0.0695 | 0.0802 | 0.34
HCC-44 | 1.14 | 0.949 | 0.603 | 0.517 | 1.08 | 1.04 | 1.06 | 1.03 | 1.06 | 0.65 | 0.712 | 0.581 | 0.602 | 0.551 |  |  |  |  |  | 0.803
HCC-78 | 0.413 | 0.335 | 0.483 | 0.465 | 0.585 | 0.792 | 0.653 | 0.696 | 0.592 | 0.889 | 0.866 | 0.888 | 0.891 | 0.871 | 0.412 | 0.307 | 0.604 | 0.314 | 0.152 | 0.431

Source: the supplement of paper PMC10307832
